# Measured values as given in US20230130103A1, “TARGETED PHARMACOLOGICAL THERAPEUTICS IN UVEAL MELANOMA” (Washington University, priority 2017, published 2023).
# Starred links: 1 amine or outer side, 2 acyl side, 3 side chain; linkers in the order of their positions; H or OH if unused. Positions of bridges follow the written chain, without caps; N, C: chain ends. Non-standard residues stand in square brackets, D forms with d. Residues, ends and D or L forms follow the SMILES beside them. *: point of attachment. Leu(3R-OH,Nα-propionyl) = CCC(=O)N[C@H](C(=O)*)[C@H](O)C(C)C; X1 = CC(C)[C@@H](O[*:3])[C@H](N[*:1])C(=O)[*:2]; X2 = CC(C)[C@H](O[*:3])[C@@H](N[*:1])C(=O)[*:2]; NMeaThr = CN[C@H](C(=O)O)[C@H](C)O; dPhLac = O=C(O)[C@H](O)Cc1ccccc1; NMeA = CN[C@@H](C)C(=O)O; NMeDha = C=C(NC)C(=O)O
# How the values were obtained:
# 92.1 cells = experiment: YAP-driven transcriptional reporter; format: cell-based; details: Homo sapiens, FIG. 6B, read-out: EC50, increase in expression of YAP-driven transcriptional reporter
# Protocol: (§1) Expression data from two experimental replicates are mean-centered; the color gradient corresponds to difference in log 2 ratio of expression from the mean, such that 0.5 versus −0.5 is a total difference of 2-fold in unlogged expression.
# (§2) Assays of transcriptional reporters driven by YAP or Gα subunits were performed as described (42, 43). YAP- or Ga-driven firefly luciferase activity was normalized to Renilla luciferase expressed from a constitutive promoter.
# Mel202 cells = experiment: YAP-driven transcriptional reporter; format: cell-based; details: Homo sapiens, FIG. 6B, read-out: EC50, increase in expression of YAP-driven transcriptional reporter
# Protocol: as §1, §2
structure (smiles),measurement,setting,value
"C=C1C(=O)N[C@@H](C)C(=O)N(C)[C@@H](C)C(=O)N[C@H]([C@@H](OC(=O)[C@@H](NC(=O)CC)[C@H](O)C(C)C)C(C)C)C(=O)N(C)[C@@H]([C@H](C)OC)C(=O)O[C@H](C(C)C)[C@H](NC(C)=O)C(=O)O[C@H](Cc2ccccc2)C(=O)N1C [FR, [(1S)-1-[(3S,6R,9S,12S,18R,21S,22R)-21-acetamido-18-benzyl-3-[(1S)-1-methoxyethyl]-4,9,10,12,16-pentamethyl-15-methylidene-2,5,8,11,14,17,20-heptaoxo-22-propan-2-yl-1,19-dioxa-4,7,10,13,16-pentazacyclodocos-6-yl]-2-methylpropyl] (2S,3R)-3-hydroxy-4-methyl-2-(propanoylamino)pentanoate] (Ac-[X1][dPhLac][NMeDha]A[NMeA][X2](Leu(3R-OH,Nα-propionyl))[NMeaThr](Me); ester 1-C)",EC50,92.1 cells,3 nM
same,EC50,Mel202 cells,0.8 nM
